Where two headings read alike, the source gives them in different places.
Tests used:
[1] = Pharmacokinetic study of R/S OXY and DEO enantiomers, transdermal oxybutynin gel (Example 20); format: in vivo, human; conditions: single-dose topical 84 mg OXY gel, abdominal area, normalized to 84 mg, mean ± SD, N = 10
Experimental: Ten healthy volunteers (Asian Indians, 60% female) aged 18 to 35 (mean 29) years old were treated with 2.8 g of a formulation of the present invention containing 3% w/w of OXY base (84 mg OXY), administered topically as a single dose on the abdomen (700 cm^2).

[2] = Dose-ranging pharmacokinetic study of transdermal oxybutynin gel in healthy volunteers (Example 18); conditions: after 20 days (steady-state), mean ± SD, N = 16
Experimental: The study was an open-label, randomized, parallel, three-treatment, dose-ranging pharmacokinetic study. […] The subjects were aged 19 to 53 (mean 35) years.
The oxybutynin transdermal gel formulation contained 3% w/w of oxybutynin base in a hydroalcoholic non-occlusive matrix including the unique combination of permeation enhancers of the present invention. Three different doses of the gel were administered topically once a day during 20 consecutive days: treatment A consisted in a daily amount of 1.4 g applied gel, corresponding to 42 mg oxybutynin; treatment B consisted in a daily amount of 2.0 g applied gel, corresponding to 60 mg oxybutynin; and treatment C consisted in a daily amount of 2.8 g applied gel, corresponding to 84 mg oxybutynin.

[3] = Pilot pharmacokinetic study of an oxybutynin gel formulation in healthy volunteers (Example 17); conditions: Treatment A (60 mg/day gel), 156 h, individual subjects
Experimental: (§1) Subjects were excluded on the basis of any preexisting condition or finding on the prestudy examination that would place them at risk during the study. Written informed consent was obtained from each subject before participating in any study-related procedures after discussion and explanation of the study.
(§2) Treatments were administered according to an open-label, multiple-dose, escalating dose titration pilot pharmacokinetic study and included a transdermal oxybutynin gel. Steady-state conditions were achieved by administering daily doses for 7 days. Subjects participated in 2 study periods during which the test medication (a transdermal gel) was applied once daily. 2 g of the gel (corresponding to a dose of 60 mg of oxybutynin) was applied daily during the first study period (Treatment A), then 1 g (corresponding to a dose of 30 mg of oxybutynin) during the second study period (Treatment B). A wash-out period of 7 days was observed between the two study periods. Both dosages were tested on same subjects. The design allows comparison between different dosages of the same formulation within the subject and removes inter-subject variability.
(§3) The main objective of this study was to assess the pharmacokinetic parameters of an oxybutynin gel formulation, administered in two different doses, administering the product in 8 healthy female volunteers.
(§4) The secondary objective of this study was to record safety parameters such as adverse events, skin tolerance, vital signs, e.g., blood pressure and heart rate.

[4] = female, human, in vivo
Experimental: as §1, §2, §3, §4

[5] = both, human, in vivo
detrusor muscle = conditions: cited from earlier work
clinical = conditions: both, human, in vivo, 84 mg, Tmax median

Compound CCN(CC)CC#CCOC(=O)[C@@](O)(c1ccccc1)C1CCCCC1 [S-OXY] has an AUC0-120 [1] of 246.0 ± 96.7 ng·h/mL and a Cmax [1] of 5.8 ± 2.6 ng/mL.
In the case of CCNCC#CCOC(=O)C(O)(c1ccccc1)C1CCCCC1 (centres unmarked) [N-desethyloxybutynin], the Cav ([2]; Treatment A: 42 mg oxybutynin daily) was 3.0 ± 1.3 ng/mL, the Cav ([2]; Treatment B: 60 mg oxybutynin daily) was 4.0 ± 2.1 ng/mL and the Cav ([2]; Treatment C: 84 mg oxybutynin daily) was 7.0 ± 4.0 ng/mL. For the same compound, the N-desethyloxybutynin concentration [3] was 11.970 ng/L.
Compound CCN(CC)CC#CCOC(=O)[C@](O)(c1ccccc1)C1CCCCC1 [R-OXY] has an AUC0-120 [1] of 151.1 ± 56.0 ng·h/mL and a Cmax [1] of 3.6 ng/mL.
CCNCC#CCOC(=O)[C@](O)(c1ccccc1)C1CCCCC1 [R-DEX] gave an AUC0-120 [1] of 269.5 ± 132.8 ng·h/mL and a Cmax [1] of 6.3 ng/mL.
With CCNCC#CCOC(=O)[C@@](O)(c1ccccc1)C1CCCCC1 [S-DEX] the AUC0-120 [1] was 285.5 ± 152.9 ng·h/mL and the Cmax [1] was 6.9 ± 3.8 ng/mL.
In the case of CCN(CC)CC#CCOC(=O)C(O)(c1ccccc1)C1CCCCC1 (centres unmarked) [Oxybutynin], the “Treatment A/Treatment B Ratio - Oxybutynin” value [4] was 1.93, the “Treatment A/Treatment B Ratio - Oxybutynin” value ([4]; 0 h) was 0 and the “time to reach plasmatic levels of about 1 to 4 ng/ml” value [5] was “about 2 hours”. The “time to reach plasmatic levels of about 2 to 4 ng/ml” value [5] was “less than 4 hours”, the “time to reach plasmatic levels of about 3 to about 4 ng/ml” value [5] was “less than 6 hours” and the “time up to which plasmatic levels of about 1 to 4 ng/ml are sustained” value [5] was “at least 72 hours”. The “time up to which plasmatic levels of about 2 to 4 ng/ml are sustained” value [5] was “at least 48 hours”, the “time up to which plasmatic levels of about 3 to about 4 ng/ml are sustained” value [5] was “at least 36 hours” and the “antispasmodic activity relative to atropine” value (detrusor muscle) was “four to ten times”. For the same compound, the “anticholinergic activity relative to atropine” value (detrusor muscle; detrusor muscle, effect observed in rabbits) was “one-fifth” and the Tmax (clinical) was 24 h.
